Measured values: patent US10883116B2, “Transduction buffer” (Koninklijke Nederlandse Akademie van Wetenschappen, priority 2013, dated 2021)
Where two headings read alike, the source gives them in different places.

Experiments:
[1] = system: murine embryonic fibroblasts (MEFs); assay: β-Lactamase protein transduction assay (CCF2-AM), protocol 3/700; settings: for protein transducing activity of hypertonicity-inducing compound: tonicity adjusted to 700 mOsm/Kg with the compound, 25 mM NDSB201 and osmoprotectants; for effect of endocytic pathway inhibitor on protein transduction / enhancement of protein transduction by GABA agonist: 1 μM β-lactamase; for enhancement of protein transduction by GABA agonist: 25 mM NDSB201 plus GABA agonist, NDSB201 alone = 100%; for protein transduction activity (in words): 25 mM compound, compared with NDSB201 (#01) or parent compound; for effect of growth factor or peptide on β-lactamase transduction of MEFs: 25 mM NDSB201, 30 mM Glycerol, 15 mM Glycine
From the text: To further characterize the protein transduction process we analyzed the effect of time, osmolality, transduction compound concentration and protein concentration on the transduction process. To this end, we set up a β-Lactamase protein transduction assay and measured intracellular β-Lactamase activity using CCF2-AM, an intracellular fluorescent β-Lactamase substrate that changes emission wavelength when cleaved by the enzyme (FIG. 3A). […] While we used the immortalized COS7 cell line in our initial studies, we wanted to know if the compound-mediated protein transduction would also allow the transduction of protein into primary cells. We therefore transduced murine embryonic fibroblasts (MEFs) with β-Lactamase (1 μM final concentration), using NaCl-adjusted hypertonic media (700 mOsm/Kg) and 25 mM NDSB201. β-Lactamase activity was set at 1 at the start of the experiment and relative intracellular β-Lactamase activity was measured as a function of time (FIG. 3B, bars). As a control, β-Lactamase transduction was measured in isotonic media in the presence of 25 mM NSDB201 (FIG. 3B, open circles).
β-lactamase transduction was performed using the 3/700 protocol above in murine embryonic fibroblasts (MEFs). A black, clear-bottom 96 well-plate was coated with 0.15 mg/ml of Poly-D-Lysine for 1 h at room temperature. 12,000 MEFs cells were seeded per well in MEF media without antibiotics. Next day, cells were transduced using the transduction protocol 3/700 as describe above. […] Na- or Rb-salt was added to adjust the final tonicity to 700 mOsm/Kg. […] After 3 hrs., the transduction media was replaced by fresh MEF media for 30 min. Subsequently, cells were washed once with phenol-red-free DMEM. β-lactamase activity was measured using the CCF2-AM kit following the manufacturer's instructions. In brief, 120 μl of CCF2-AM loading media was added per well and cells were incubated for 1 h at room temperature. Cells were washed two times with DMEM phenol-red free and incubated for an additional 30-60 min. Fluorescence emission was measured at […] and 510 nm following manufacturer's instructions. All tests were done in triplicate.

[2] = system: COS7 cells; assay: Oct4 luciferase reporter (6×OCT4-TK-Luc) protein transduction assay; format: cell-based
[3] = system: MEFs cells expressing GAL3-GFP protein; assay: GAL3-GFP macropinosome vesicle leakage reporter assay; settings: 700/3 conditions
Description: Schematic representation of the GAL3-GFP reporter assay. Upon initiation of transduction, extracellularly applied protein is taken up into macropinosomes (grey vesicles). […] At the same time, the compromised macropinosome membrane now allows entry of cytosolic GAL3-GFP protein, which binds to—and accumulates at the intra-macropinosome carbohydrates resulting in a bright fluorescent signal (white vesicles). […] GAL3-GFP cells were incubated with transduction media at 700 mOsmol/Kg with or without the macropinocytosis inhibitor EIPA. Untreated cells were included as negative control.
For transduction to occur, proteins that have been taken by macropinocytosis have to be released into the cytosol. […] To test the efficacy of potential transduction compound candidates, we set up an assay to monitor macropinosome vesicle permeation. […] We set up a reporter system in which Galectin-3 protein is fused to GFP (GAL3-GFP). Cytosolic GAL3-GFP protein relocalises to the interior of permeabilized macropinosomes, whereby a multimer complex is formed with intense green fluorescent emission. MEFs cells expressing GAL3-GFP protein were transduced using the 700/3 conditions.

[4] = system: murine embryonic fibroblasts (MEFs); assay: BrdU incorporation (cell proliferation) after transduction of MEFs; settings: BrdU 24 hrs after start of transduction, 25 mM compound, 700 mOsm/Kg
Description: Open circles indicate relative BrdU incorporation by the transduced cells. BrdU incorporation of untransduced cells was set at 100% and BrdU incorporation of mitomycin C-treated cells was set at 0%.
Cell proliferation was determined using the Cell Proliferation Elisa kit, Brdu (Roche) following manufacturer's instructions (Roche).

[5] = 3 hours, 700 mOsm/Kg NaCl, 25 mM NDSB201
[6] = 3 hours, 25 mM NDSB201, tonicity adjusted with NaCl

Compound: OC[C@H]1O[C@@H](O[C@@H]2[C@@H](CO)OC(O)(CO)[C@H]2O)[C@H](O)[C@@H](O)[C@H]1O (mixture of isomers) [Lactulose]
- protein transducing activity of hypertonicity-inducing compound ([1]; 3 hours): failed to induce protein transduction

Compound: CN(C)CCCN1c2ccccc2Sc2ccc(Cl)cc21 [Chlorpromazine, reference compound]
- effect of endocytic pathway inhibitor on protein transduction [1, 5]: ineffective in inhibiting protein transduction

Compound: [Cl-].[Cs+] [CsCl, caesium chloride]
- protein transducing activity of hypertonicity-inducing compound ([1]; 3 hours): had protein transducing activity

Compound: C=C1[C@@H](C)[C@H]2[C@H](Cc3ccccc3)NC(=O)[C@]23[C@H](OC(C)=O)/C=C/[C@@](C)(O)C(=O)[C@@H](C)C/C=C/[C@H]3[C@@H]1O [Cytochalasin D, reference compound]
- effect of endocytic pathway inhibitor on protein transduction [1, 5]: completely blocked protein transduction

Compound: CN(C)c1nc(N)c(C(=O)N=C(N)N)nc1Cl.Cl [DMA, 5-(N,N-dimethyl) amiloride hydrochloride, reference compound]
- effect of endocytic pathway inhibitor on protein transduction [1, 5]: strongly inhibited

Compound: O=C(N/N=C/c1ccc(O)c(O)c1)c1cc2ccccc2cc1O [Dynasore, reference compound]
- effect of endocytic pathway inhibitor on protein transduction [1, 5]: ineffective in inhibiting protein transduction

Compound: [Cl-].[K+] [KCl, potassium chloride]
- protein transducing activity of hypertonicity-inducing compound ([1]; 3 hours): had protein transducing activity

Compound: C/C1=C/C(=O)O[C@@H]2C[C@@H](CC[C@H](C)/C=C\C=C\CC1)O[C@@](O)([C@@H]1CSC(=O)N1)C2 [Latrunculin A, reference compound]
- effect of endocytic pathway inhibitor on protein transduction [1, 5]: completely blocked protein transduction

Compound: [Cl-].[Li+] [LiCl, lithium chloride]
- protein transducing activity of hypertonicity-inducing compound ([1]; 3 hours): had protein transducing activity

Compound: OC[C@@H](O)[C@@H](O)[C@H](O)[C@H](O)CO [Manitol]
- protein transducing activity of hypertonicity-inducing compound ([1]; 3 hours): failed to induce protein transduction

Compound: NCc1cc(=O)[nH]o1 [Muscimol, reference compound]
- enhancement of protein transduction by GABA agonist ([1]; 3 hours, 700 mOsm/Kg): approximately 300%

Compound: [Cl-].[Na+] [NaCl, Sodium chloride]
- effect of omitting buffer component on Oct4-reporter activation by Oct4-VP16 protein [2]: abrogated Oct4-reporter activation
- osmolality beyond which cell loss was observed [1, 6]: > 850 mOsm/Kg
- osmolality of maximal β-Lactamase transduction [1, 6]: 700-800 mOsm/Kg
- protein transducing activity of hypertonicity-inducing compound ([1]; 3 hours): the highest activity

Compound: C[C@@H]1[C@H](O)[C@@H](C)/C=C/C=C/CC/C=C/C=C/C=C/C=C/C(O[C@H]2O[C@H](C)[C@@H](O)[C@H](N)[C@@H]2O)CC2O[C@](O)(CC(O)C(O)CCC(O)CC(O)CC(O)CC(=O)O[C@H]1C)CC(O)C2C(=O)O (some centres unmarked) [Nystatin, reference compound]
- effect of endocytic pathway inhibitor on protein transduction [1, 5]: ineffective in inhibiting protein transduction

Compound: O=C1NC(=NS(=O)(=O)c2cccc3ccccc23)S/C1=C\c1ccc(Br)cc1 [Pitstop2, reference compound]
- effect of endocytic pathway inhibitor on protein transduction [1, 5]: ineffective in inhibiting protein transduction

Compound: [Cl-].[Rb+] [RbCl, rubidium chloride]
- protein transducing activity of hypertonicity-inducing compound ([1]; 3 hours): the highest activity

Compound: CP(=O)(O)CCCN [SKF-97541, reference compound]
- enhancement of protein transduction by GABA agonist ([1]; 3 hours, 700 mOsm/Kg): approximately 300%

Compound: O=C([O-])[C@H](O)[C@@H](O)[C@H](O)[C@H](O)CO.[Na+] [Sodium Gluconate]
- protein transducing activity of hypertonicity-inducing compound ([1]; 3 hours): efficiency similar to NaCl and RbCl

Compound: OC[C@@H](O)[C@@H](O)[C@H](O)[C@@H](O)CO [Sorbitol]
- protein transducing activity of hypertonicity-inducing compound ([1]; 3 hours): failed to induce protein transduction

Compound: OC[C@H]1O[C@@](CO)(O[C@H]2O[C@H](CO)[C@@H](O)[C@H](O)[C@H]2O)[C@@H](O)[C@@H]1O [Sucrose]
- protein transducing activity of hypertonicity-inducing compound ([1]; 3 hours): failed to induce protein transduction

Compound: O=S(=O)([O-])CCC[n+]1ccccc1 [compound 1, 3-(1-pyridino)-1-propanesulfonate, reference compound]
- effect of omitting buffer component on Oct4-reporter activation by Oct4-VP16 protein ([2]; COS7 cells): abrogated Oct4-reporter activation
- time after initiation of transduction at which intracellular β-Lactamase activity could be observed ([1]; 1 μM β-Lactamase, 700 mOsm/Kg NaCl, 25 mM NDSB201): 2.5 h
- effect of higher compound concentrations under hyperosmotic conditions ([1]; 700 mOsm/kg, above 10-25 mM): cell loss
- protein transduction activity (in words) ([1]; 3 hours, 700 mOsm/Kg): most efficient
- transduction compound concentration at peak β-Lactamase transduction ([1]; 3 hours, 700 mOsm/kg NaCl, 1 μM β-Lactamase): 10 to 25 mM
- Gal3-GFP localisation to macropinocytic vesicles (vesicle leakage) [3]: bright vesicle formation

Compound: C[N+]1(CCCS(=O)(=O)[O-])CCCCC1 [compound 03, 3-(1-methylpiperidine)-1-propanesulfonate, reference compound]
- protein transduction activity (in words) ([1]; 3 hours, 700 mOsm/Kg): most efficient

Compound: CCC(C)(C)CCCS(=O)(=O)O [compound 07]
- protein transduction activity (in words) ([1]; 3 hours, 700 mOsm/Kg): greatly diminished transduction activity
- effect on cell proliferation / viability (BrdU incorporation, in words) [4]: severe cell cycle inhibition

Compound: NCC(=O)O [compound 18, Glycine]
- protein transduction activity (in words) ([1]; 3 hours, 700 mOsm/Kg): little to no transduction activity
- β-lactamase transduction activity when combined with reference compound #01 (reference set at 100%) ([1]; equimolar with NDSB201 (#01), 12.5 mM each, total 25 mM, 3 hours, 700 mOsm/Kg): approximately 15%
- Gal3-GFP localisation to macropinocytic vesicles (vesicle leakage) [3]: did not localize into the macropinocytic vesicles

Compound: CCCCC(=O)O [compound 23, pentanoic acid]
- protein transduction activity (in words) ([1]; 3 hours, 700 mOsm/Kg): greatly diminished transduction activity
- effect on cell proliferation / viability (BrdU incorporation, in words) [4]: severe cell cycle inhibition

Compound: CCCCN [compound 24, n-butylamine]
- protein transduction activity (in words) ([1]; 3 hours, 700 mOsm/Kg): greatly diminished transduction activity
- effect on cell proliferation / viability (BrdU incorporation, in words) [4]: severe cell cycle inhibition

Compound: EGF: epidermal growth factor
- effect of growth factor or peptide on β-lactamase transduction of MEFs ([1]; 3 hours, 700 mOsm/Kg): doubling of β-lactamase uptake

Compound: Insulin: Insulin
- effect of growth factor or peptide on β-lactamase transduction of MEFs ([1]; 3 hours, 700 mOsm/Kg): small, but significant stimulatory effect

Compound: PDGF
- effect of growth factor or peptide on β-lactamase transduction of MEFs ([1]; 3 hours, 700 mOsm/Kg): doubling of β-lactamase uptake
